In assay [1] the target is T1, mutEGFR (D770_N771insSVD) (Homo sapiens, UniProt P00533, DUP768-770).
T1 construct: GST-EGFR #3 (SVD between D770 and N771); made in house; host or cells: Sf9 insect cells (baculovirus)
As to the kind of experiment: Exon20-Mutant-EGFR(D770_N771insSVD) kinase assay (TR-FRET). Type of assay: biochemical. The conditions noted are these: GST-EGFR ins SVD, 2 mM ATP, 15 min pre-incubation. The text has this:
Inhibitory activity of compounds of the present invention against an Epidermal Growth Factor Receptor (EGFR) with an insertion of the amino acids sequence SVD between D770 and N771 was quantified employing the TR-FRET based kinase activity assay as described in the following paragraphs.
A recombinant fusion protein of N-terminal Glutathion-S-Transferase (GST) and a fragment of human EGFR variant (amino acids R669 to A1210 with insertion of the amino acids sequence SVD between D770 and N771 (“EGFR ins SVD”), expressed in Sf9 insect cells and purified via affinity chromatography using Glutathion Sepharose as described above, was used as a kinase. As substrate for the kinase reaction the biotinylated peptide biotin-Ahx-AEEEEYFELVAKKK (SEQ ID NO: 6) (C-terminus in amide form) was used which can be purchased e.g. form the company Biosynthan GmbH (Berlin-Buch, Germany).
For the assay 50 nl of a 100-fold concentrated solution of the test compound in DMSO was pipetted into either a black low volume 384 well microtiter plate or a black 1536 well microtiter plate (both Greiner Bio-One, Frickenhausen, Germany), 2 μl of a solution of EGFR in aqueous assay buffer [50 mM Hepes pH 7.0, 10 mM MgCl2, 1 mM dithiothreitol, 0.5 mM EGTA, 0.3 mM activated sodium ortho-vanadate, 0.005% (w/v) bovine serum albumin, 0.005% (v/v) Tween-20] were added and the mixture was incubated for 15 min at 22° C. to allow pre binding of the test compounds to the enzyme before the start of the kinase reaction. Then the kinase reaction was started by the addition of 3 μL of a solution of adenosine tri phosphate (ATP, 3.33 mM=>final conc. in the 5 μL assay volume is 2 mM) and substrate (1.67 μM=>final conc. in the 5 μL assay volume is 1 μM) in assay buffer and the resulting mixture was incubated for a reaction time of 30 min at 22° C. The concentration of EGFR was adjusted depending of the activity of the enzyme lot and was chosen appropriate to have the assay in the linear range, typical concentration was 15 pg/μl. The reaction was stopped by the addition of 3 μl of a solution of HTRF detection reagents (83.3 nM streptavidine-XL665 [Cisbio Bioassays, Codolet, France] and 1.67 nM PT66-Tb-Cryptate, a terbium-cryptate labelled anti-phospho-tyrosine antibody from Cisbio Bioassays [instead of the PT66 Tb cryptate PT66 Eu Chelate from Perkin Elmer can also be used]) in an aqueous EDTA-solution (133.3 mM EDTA, 0.2% (w/v) bovine serum albumin in 50 mM HEPES pH 7.5).
The resulting mixture was incubated 1 h at 22° C. to allow the binding of the biotinylated phosphorylated peptide to the streptavidine-XL665 and the PT66-Tb-Cryptate. Subsequently the amount of phosphorylated substrate was evaluated by measurement of the resonance energy transfer from the PT66-Tb-Cryptate to the streptavidine-XL665. Therefore, the fluorescence emissions at 620 nm and 665 nm after excitation at 337 nm were measured in a HTRF reader, e.g. a Pherastar (BMG Labtechnologies, Offenburg, Germany) or a Viewlux (Perkin-Elmer). The ratio of the emissions at 665 nm and at […] was taken as the measure for the amount of phosphorylated substrate. The data were normalised (enzyme reaction without inhibitor=0% inhibition, all other assay components but no enzyme=100% inhibition).
(TR-FRET usually uses a lanthanide donor and a delayed reading to cut background.)

The target of a further assay is Ba/F3-EGFR-insSVD cells (Homo sapiens, UniProt P00533, DUP768-770, cells depend on it). The assay is described as follows: Ba/F3 cell survival assay (Cell Titer-Glo), EGFR-insSVD. Type of assay: cell-based. Conditions: 48 h, without IL-3, 10 ng/mL EGF; read-out: BA/F3 (insSVD) IC50. Here is the method:
(§1) 293T cells from ATCC were transfected with pBABEpuro expression constructs for WT EGFR or EGFR-insSVD, or EGFR-insSVD T790M, and pCL-Eco packaging vector using Fugene-6 transfection reagent from Promega. Plates were incubated at 37° C. for 48 h. Retrovirus was harvested by filtering the media supernatant through a 0.45 μm filter.
(§2) Ba/F3 cells purchased from DSMZ were grown in RPMI+10% FBS+10 ng/mL IL-3 and infected with filtered retroviral supernatant at a 1:2 dilution. Polybrene was added to a concentration of 8 μg/mL, plates were spun for 90 min, and incubated for 16 h at 37° C. 2 μg/mL puromycin was added to the infected cells 24 h after infection and cells were continually grown in the presence of puromycin and 10 ng/mL IL-3. Following stably expressing Ba/F3 cell lines were generated: Ba/F3-EGFR-WT, Ba/F3-EGFR-insSVD, Ba/F3-EGFR-insSVD T790M, (Ba/F3—vector-control).
(§3) For cell survival assays, Ba/F3 cells were grown to a density of 1-2 million cells per mL, spun down and resuspended in media without IL-3, and replated at a concentration 200,000-500,000 cells per mL. The cells ectopically expressing WT EGFR, EGFR-insSVD, or EGFR-insSVD T790M were plated with 10 ng/mL Millipore Culture grade EGF. The cells ectopically expressing pBABEpuro empty vector were plated with 10 ng/mL IL-3.
(§4) 2 days later, cells were plated in 50 μL in a 384 well plate at a concentration of 4000 cells per well for cells assayed in the absence of IL-3 and 2000 cells per well for cells assayed in the presence of IL-3. 100 nL of compound was added to each well using a 100 nL pin head, and plates were incubated at 37° C. for 48 h.
(§5) Cell viability was measured by adding 20 μL of Cell Titer-Glo Luminescent Cell Viability Reagent diluted 1:3 in PBS. Plates were sealed with Perkin Elmer Top-Seal, inverted several times to mix, and immediately centrifuged at 1000 rpm for 2 min. Plates were incubated in low light conditions for 8-10 min and luminescence was measured.
(In general: In ATP-based viability assays light output follows the ATP content of the culture.)

The target of another assay is Ba/F3-EGFR-WT cells (Homo sapiens, UniProt P00533). As to the kind of experiment: Ba/F3 cell survival assay (Cell Titer-Glo), WT EGFR. Type of assay: cell-based. The conditions noted are these: 48 h, without IL-3, 10 ng/mL EGF; read-out: BA/F3 (wild type) IC50. Here is the method: as §1, §2, §3, §4, §5
Chain of Ba/F3-EGFR-WT cells (P00533 whole entry, stated change not applied): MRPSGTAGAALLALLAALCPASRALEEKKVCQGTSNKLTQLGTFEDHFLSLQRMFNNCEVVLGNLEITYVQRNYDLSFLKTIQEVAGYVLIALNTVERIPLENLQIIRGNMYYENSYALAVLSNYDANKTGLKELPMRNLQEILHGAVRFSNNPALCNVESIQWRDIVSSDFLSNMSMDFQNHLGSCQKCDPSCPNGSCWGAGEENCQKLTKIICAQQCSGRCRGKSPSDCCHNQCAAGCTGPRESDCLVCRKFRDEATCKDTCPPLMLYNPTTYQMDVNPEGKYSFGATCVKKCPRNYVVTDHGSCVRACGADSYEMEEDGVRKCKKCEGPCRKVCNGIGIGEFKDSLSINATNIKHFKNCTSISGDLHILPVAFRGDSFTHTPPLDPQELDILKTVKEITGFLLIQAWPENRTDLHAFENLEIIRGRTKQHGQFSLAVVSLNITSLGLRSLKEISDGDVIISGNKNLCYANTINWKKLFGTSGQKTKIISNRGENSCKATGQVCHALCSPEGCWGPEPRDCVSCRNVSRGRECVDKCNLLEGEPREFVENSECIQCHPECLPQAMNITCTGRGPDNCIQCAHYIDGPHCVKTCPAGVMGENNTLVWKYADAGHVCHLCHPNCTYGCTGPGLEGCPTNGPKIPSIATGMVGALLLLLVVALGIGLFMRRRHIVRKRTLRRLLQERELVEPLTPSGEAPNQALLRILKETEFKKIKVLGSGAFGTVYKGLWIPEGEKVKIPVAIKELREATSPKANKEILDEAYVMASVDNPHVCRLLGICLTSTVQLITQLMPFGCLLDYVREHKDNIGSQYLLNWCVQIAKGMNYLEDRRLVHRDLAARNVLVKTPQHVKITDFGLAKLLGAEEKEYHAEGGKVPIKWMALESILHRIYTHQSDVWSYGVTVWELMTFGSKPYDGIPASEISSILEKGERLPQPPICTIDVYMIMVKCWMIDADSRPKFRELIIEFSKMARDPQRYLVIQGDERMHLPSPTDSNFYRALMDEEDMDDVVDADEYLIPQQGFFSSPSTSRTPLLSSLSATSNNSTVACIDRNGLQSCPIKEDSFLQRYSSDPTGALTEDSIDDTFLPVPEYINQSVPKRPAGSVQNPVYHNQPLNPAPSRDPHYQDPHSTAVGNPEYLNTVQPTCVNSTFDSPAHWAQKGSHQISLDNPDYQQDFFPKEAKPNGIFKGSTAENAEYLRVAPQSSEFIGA
The target of assay [2] is Ba/F3-EGFR-L858R T790M cells (Homo sapiens, UniProt P00533, T790M/L858R, cells depend on it). The assay is described as follows: Ba/F3 cell survival assay (Cell Titer-Glo), EGFR-L858R T790M. Conditions: 48 h, without IL-3, 10 ng/mL EGF; read-out: BA/F3 (L858R T790M) IC50. Type of assay: cell-based. The method, then:
(§6) 293T cells from ATCC were transfected with pBABEpuro expression constructs for EGFR-L858R, EGFR-E746_A750del, EGFR-L858R T790M, or EGFR-E746_A750del T790M, and pCL-Eco packaging vector using Fugene-6 transfection reagent from Promega. Plates were incubated at 37° C. for 48 h. Retrovirus was harvested by filtering the media supernatant through a 0.45 μm filter.
(§7) Ba/F3 cells purchased from DSMZ were grown in RPMI+10% FBS+10 ng/mL IL-3 and infected with filtered retroviral supernatant at a 1:2 dilution. Polybrene was added to a concentration of 8 μg/mL, plates were spun for 90 min, and incubated for 16 h at 37° C. 2 μg/mL puromycin was added to the infected cells 24 h after infection and cells were continually grown in the presence of puromycin and 10 ng/mL IL-3. Following stably expressing Ba/F3 cell lines were generated: Ba/F3-EGFR-L858R, Ba/F3-EGFR-E746_A750del, Ba/F3-EGFR-L858R T790M, or Ba/F3-EGFR-E746_A750del T790M.
(§8) For cell survival assays, Ba/F3 cells were grown to a density of 1-2 million cells per mL, spun down and resuspended in media without IL-3, and replated at a concentration 200,000-500,000 cells per mL. The cells ectopically expressing EGFR-L858R, EGFR-E746_A750del, EGFR-L858R T790M, or EGFR-E746_A750del T790M were plated with 10 ng/mL Millipore Culture grade EGF. The cells ectopically expressing pBABEpuro empty vector were plated with 10 ng/mL IL-3.
as §4, §5

For assay [3], the target named is Ba/F3-EGFR-E746_A750del T790M cells (Homo sapiens, UniProt P00533, DEL746-750/T790M, cells depend on it). As to the kind of experiment: Ba/F3 cell survival assay (Cell Titer-Glo), EGFR-E746_A750del T790M. Type of assay: cell-based. The conditions noted are these: 48 h, without IL-3, 10 ng/mL EGF; read-out: BA/F3 (E746_A750del T790M) IC50. The method, then: as §6, §7, §8, §4, §5
Chain of Ba/F3-EGFR-E746_A750del T790M cells (P00533 with tags, fused parts or gaps DEL746-750/T790M): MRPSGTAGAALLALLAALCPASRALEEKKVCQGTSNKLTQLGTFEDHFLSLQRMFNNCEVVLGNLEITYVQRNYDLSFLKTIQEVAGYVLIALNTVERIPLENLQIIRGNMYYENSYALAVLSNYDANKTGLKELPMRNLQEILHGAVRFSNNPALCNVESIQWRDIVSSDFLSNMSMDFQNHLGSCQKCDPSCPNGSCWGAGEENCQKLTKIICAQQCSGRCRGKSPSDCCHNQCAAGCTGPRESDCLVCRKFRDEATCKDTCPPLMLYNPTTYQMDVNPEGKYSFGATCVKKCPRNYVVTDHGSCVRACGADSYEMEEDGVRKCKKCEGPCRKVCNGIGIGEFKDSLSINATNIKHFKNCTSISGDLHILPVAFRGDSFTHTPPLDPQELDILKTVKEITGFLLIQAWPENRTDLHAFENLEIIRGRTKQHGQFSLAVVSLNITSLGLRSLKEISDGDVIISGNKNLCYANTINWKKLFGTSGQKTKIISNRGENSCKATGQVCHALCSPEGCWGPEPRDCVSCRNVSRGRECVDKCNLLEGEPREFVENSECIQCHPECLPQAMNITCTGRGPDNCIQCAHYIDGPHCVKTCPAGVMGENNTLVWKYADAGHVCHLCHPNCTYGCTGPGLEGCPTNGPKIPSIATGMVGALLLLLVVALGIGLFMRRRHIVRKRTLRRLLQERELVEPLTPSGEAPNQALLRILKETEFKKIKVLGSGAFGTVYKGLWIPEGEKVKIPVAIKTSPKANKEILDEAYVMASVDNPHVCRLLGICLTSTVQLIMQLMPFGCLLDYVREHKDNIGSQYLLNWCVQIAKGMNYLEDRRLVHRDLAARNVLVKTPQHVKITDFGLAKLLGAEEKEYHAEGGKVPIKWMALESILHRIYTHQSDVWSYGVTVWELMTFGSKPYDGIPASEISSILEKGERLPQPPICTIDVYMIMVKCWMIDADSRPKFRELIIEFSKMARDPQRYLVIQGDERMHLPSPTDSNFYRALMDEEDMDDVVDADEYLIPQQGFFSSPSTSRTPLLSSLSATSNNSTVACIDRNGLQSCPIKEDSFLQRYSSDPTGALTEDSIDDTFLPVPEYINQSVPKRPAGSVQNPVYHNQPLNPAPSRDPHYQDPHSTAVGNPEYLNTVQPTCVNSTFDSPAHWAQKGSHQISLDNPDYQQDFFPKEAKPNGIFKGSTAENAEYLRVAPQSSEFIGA

Chain of Ba/F3-EGFR-insSVD cells (P00533 with tags, fused parts or gaps DUP768-770): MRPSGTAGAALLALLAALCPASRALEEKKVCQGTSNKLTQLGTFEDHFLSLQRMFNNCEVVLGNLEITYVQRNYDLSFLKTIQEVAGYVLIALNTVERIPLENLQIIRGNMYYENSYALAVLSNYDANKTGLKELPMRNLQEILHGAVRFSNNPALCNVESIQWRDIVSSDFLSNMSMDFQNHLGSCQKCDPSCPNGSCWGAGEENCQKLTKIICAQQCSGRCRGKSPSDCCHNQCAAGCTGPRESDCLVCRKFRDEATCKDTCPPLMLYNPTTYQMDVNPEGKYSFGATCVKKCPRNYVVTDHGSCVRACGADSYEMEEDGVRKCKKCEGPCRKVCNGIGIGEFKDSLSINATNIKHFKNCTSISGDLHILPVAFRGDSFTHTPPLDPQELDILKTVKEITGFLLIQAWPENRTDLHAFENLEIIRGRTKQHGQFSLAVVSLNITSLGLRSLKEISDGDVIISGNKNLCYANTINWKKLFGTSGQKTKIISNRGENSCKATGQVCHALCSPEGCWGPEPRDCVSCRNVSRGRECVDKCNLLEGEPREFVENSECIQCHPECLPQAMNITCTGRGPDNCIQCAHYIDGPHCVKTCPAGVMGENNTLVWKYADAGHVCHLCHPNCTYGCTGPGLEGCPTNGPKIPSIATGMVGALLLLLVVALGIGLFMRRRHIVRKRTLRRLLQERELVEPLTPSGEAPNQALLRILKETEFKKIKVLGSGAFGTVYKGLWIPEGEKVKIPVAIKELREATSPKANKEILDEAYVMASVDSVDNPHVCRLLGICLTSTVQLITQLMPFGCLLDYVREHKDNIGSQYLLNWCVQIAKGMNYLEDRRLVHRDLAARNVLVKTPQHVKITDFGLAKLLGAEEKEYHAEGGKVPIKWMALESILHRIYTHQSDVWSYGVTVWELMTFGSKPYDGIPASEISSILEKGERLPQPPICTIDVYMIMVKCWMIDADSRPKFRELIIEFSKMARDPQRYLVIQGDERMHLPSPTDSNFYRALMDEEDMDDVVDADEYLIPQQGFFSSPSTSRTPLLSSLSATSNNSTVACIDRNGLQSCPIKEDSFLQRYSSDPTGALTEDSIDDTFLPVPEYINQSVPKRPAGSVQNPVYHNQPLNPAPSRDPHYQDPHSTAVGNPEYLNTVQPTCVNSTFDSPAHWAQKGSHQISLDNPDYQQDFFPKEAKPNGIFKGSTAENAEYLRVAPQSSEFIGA
Chain of Ba/F3-EGFR-L858R T790M cells (P00533 whole entry T790M/L858R): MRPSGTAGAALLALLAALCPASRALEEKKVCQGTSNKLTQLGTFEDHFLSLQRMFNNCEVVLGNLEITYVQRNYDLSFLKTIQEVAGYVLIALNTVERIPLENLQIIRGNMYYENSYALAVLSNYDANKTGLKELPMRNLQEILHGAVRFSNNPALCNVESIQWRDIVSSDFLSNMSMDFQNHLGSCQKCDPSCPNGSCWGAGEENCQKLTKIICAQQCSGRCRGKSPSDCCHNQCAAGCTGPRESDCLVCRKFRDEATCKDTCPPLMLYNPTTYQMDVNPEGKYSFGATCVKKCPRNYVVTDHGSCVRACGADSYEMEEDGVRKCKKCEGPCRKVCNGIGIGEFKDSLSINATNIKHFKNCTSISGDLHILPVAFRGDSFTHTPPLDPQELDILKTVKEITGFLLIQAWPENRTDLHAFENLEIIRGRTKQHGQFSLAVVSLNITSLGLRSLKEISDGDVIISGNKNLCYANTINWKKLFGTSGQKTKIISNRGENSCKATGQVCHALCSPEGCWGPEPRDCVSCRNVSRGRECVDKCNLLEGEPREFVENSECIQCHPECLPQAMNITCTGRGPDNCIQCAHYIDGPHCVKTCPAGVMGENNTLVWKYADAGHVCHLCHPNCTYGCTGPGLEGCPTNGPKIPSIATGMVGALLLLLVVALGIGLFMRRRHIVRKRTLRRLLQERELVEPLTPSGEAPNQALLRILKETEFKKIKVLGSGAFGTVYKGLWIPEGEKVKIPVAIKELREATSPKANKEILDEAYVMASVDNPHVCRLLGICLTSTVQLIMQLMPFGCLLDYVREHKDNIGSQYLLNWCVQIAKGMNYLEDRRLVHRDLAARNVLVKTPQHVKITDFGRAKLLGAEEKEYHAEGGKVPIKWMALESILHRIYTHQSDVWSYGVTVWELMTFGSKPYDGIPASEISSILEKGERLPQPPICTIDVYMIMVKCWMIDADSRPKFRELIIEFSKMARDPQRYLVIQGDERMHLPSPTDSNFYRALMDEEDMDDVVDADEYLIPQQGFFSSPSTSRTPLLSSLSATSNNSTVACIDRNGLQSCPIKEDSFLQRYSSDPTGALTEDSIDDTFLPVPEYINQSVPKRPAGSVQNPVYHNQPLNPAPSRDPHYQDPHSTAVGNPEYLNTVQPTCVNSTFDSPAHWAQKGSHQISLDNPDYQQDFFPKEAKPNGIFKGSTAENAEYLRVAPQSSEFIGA

A word on the IC50: it is the concentration that inhibits the measured activity by half. Take `C=CC(=O)NCCOc1cnccc1-c1[nH]c2c(c1Nc1cccc(Cl)c1OC)C(=O)NCC2` [Example 1, N-[2-({4-[3-(3-chloro-2-methoxyanilino)-4-oxo-4,5,6,7-tetrahydro-1H-pyrrolo[3,2-c]pyridin-2-yl]pyridin-3-yl}oxy)ethyl]prop-2-enamide]: in assay [1], the half-maximal inhibitory concentration (IC50) was determined as 0.155 nM. The GI50 at Ba/F3-EGFR-insSVD cells was 376 nM; at Ba/F3-EGFR-WT cells, 3030 nM; in assay [2], greater than 1000 nM; in assay [3] it was greater than 1000 nM.

For `C=CC(=O)NCCOc1cnccc1-c1[nH]c2c(c1Nc1cccc(F)c1C)C(=O)NCC2` [Example 2, N-[2-({4-[3-(3-fluoro-2-methylanilino)-4-oxo-4,5,6,7-tetrahydro-1H-pyrrolo[3,2-c]pyridin-2-yl]pyridin-3-yl}oxy)ethyl]prop-2-enamide], the IC50 in assay [1] is 0.386 nM. Further, the GI50 was determined as 57.9 nM on Ba/F3-EGFR-insSVD cells, 907 nM at Ba/F3-EGFR-WT cells, 215 nM in assay [2] and 25.2 nM in assay [3].

Molecule `C=CC(=O)NCCOc1cnccc1-c1[nH]c2c(c1Nc1cccc(Cl)c1C)C(=O)NCC2` [Example 3, N-[2-({4-[3-(3-chloro-2-methylanilino)-4-oxo-4,5,6,7-tetrahydro-1H-pyrrolo[3,2-c]pyridin-2-yl]pyridin-3-yl}oxy)ethyl]prop-2-enamide] showed an IC50 in assay [1] of 0.265 nM. For the same molecule, the GI50 was 40.2 nM at Ba/F3-EGFR-insSVD cells, 566 nM at Ba/F3-EGFR-WT cells, 201 nM in assay [2] and 32.6 nM in assay [3].

In assay [1], `C=CC(=O)NCCCOc1cnccc1-c1[nH]c2c(c1Nc1cccc(Cl)c1OC)C(=O)NCC2` [Example 4, N-[3-({4-[3-(3-chloro-2-methoxyanilino)-4-oxo-4,5,6,7-tetrahydro-1H-pyrrolo[3,2-c]pyridin-2-yl]pyridin-3-yl}oxy)propyl]prop-2-enamide] showed an IC50 of 0.305 nM. For the same molecule, the GI50 on Ba/F3-EGFR-insSVD cells is 519 nM; on Ba/F3-EGFR-WT cells, 4420 nM; in assay [2], greater than 1000 nM; in assay [3], greater than 1000 nM.

`C=CC(=O)N(C)CCOc1cnccc1-c1[nH]c2c(c1Nc1cccc(Cl)c1OC)C(=O)NCC2` [Example 5, N-[2-({4-[3-(3-chloro-2-methoxyanilino)-4-oxo-4,5,6,7-tetrahydro-1H-pyrrolo[3,2-c]pyridin-2-yl]pyridin-3-yl}oxy)ethyl]-N-methylprop-2-enamide] yielded a 50% inhibitory concentration (IC50) in assay [1] of 0.231 nM. For the same molecule, the GI50 on Ba/F3-EGFR-insSVD cells stood at 5.77 nM; at Ba/F3-EGFR-WT cells it was 68 nM; in assay [2], 12.9 nM; in assay [3] it was 3.39 nM.

For `C=CC(=O)N(C)CCOc1cnccc1-c1[nH]c2c(c1Nc1cccc(F)c1OC)C(=O)NCC2` [Example 6, N-[2-({4-[3-(3-fluoro-2-methoxyanilino)-4-oxo-4,5,6,7-tetrahydro-1H-pyrrolo[3,2-c]pyridin-2-yl]pyridin-3-yl}oxy)ethyl]-N-methylprop-2-enamide], in assay [1], the half-inhibitory concentration (IC50) turned out to be 0.171 nM. In addition, the GI50 on Ba/F3-EGFR-insSVD cells is 8.94 nM; at Ba/F3-EGFR-WT cells, 109 nM; in assay [2], 26.4 nM; in assay [3] it was 4.96 nM.

In assay [1], `C=CC(=O)N(C)CCOc1cnccc1-c1[nH]c2c(c1Nc1ccc(F)cc1)C(=O)NCC2` [Example 7, N-[2-({4-[3-(4-fluoroanilino)-4-oxo-4,5,6,7-tetrahydro-1H-pyrrolo[3,2-c]pyridin-2-yl]pyridin-3-yl}oxy)ethyl]-N-methylprop-2-enamide] had an IC50 of 1.62 nM. The GI50 at Ba/F3-EGFR-insSVD cells is 146 nM; on Ba/F3-EGFR-WT cells, 366 nM; in assay [2] it was 274 nM; in assay [3] it was 21.9 nM.

Regarding `C=CC(=O)N1CCC[C@H]1COc1cnccc1-c1[nH]c2c(c1Nc1cccc(Cl)c1OC)C(=O)NCC2` [Example 13, 3-(3-chloro-2-methoxyanilino)-2-(3-{[(2S)-1-(prop-2-enoyl)pyrrolidin-2-yl]methoxy}pyridin-4-yl)-1,5,6,7-tetrahydro-4H-pyrrolo[3,2-c]pyridin-4-one], the IC50 in assay [1] amounted to 0.206 nM. Besides, the GI50 is 6.69 nM on Ba/F3-EGFR-insSVD cells and 51.2 nM on Ba/F3-EGFR-WT cells.

The values are drawn from patent publication US20230416249A1, “N-[2-({4-[3-(ANILINO)-4-OXO-4,5,6,7-TETRAHYDRO-1H-PYRROLO[3,2-C]PYRIDIN-2-YL]PYRIDIN-3-YL)OXY)ETHYL]PROP-2-ENAMIDE DERIVATIVES AND SIMILAR COMPOUNDS AS EGFR INHIBITORS FOR THE TREATMENT OF CANCER” (Bayer Aktiengesellschaft, priority 2020, published 2023).
